Experimental data taken from ChEMBL document CHEMBL1201862, “PubChem BioAssay data set” (2004).
Active and inactive are the calls of the source.

What was measured:
[1] = target: Eukaryotic translation initiation factor 4E (Mus musculus, UniProt P63073); experiment: eIF4E–eIF4G protein interaction inhibitors, dose response, biochemical, TR-FRET (AID 855); format: functional;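 also: potency for disrupting eIF4E binding to eIF4GI seen as loss of FRET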
Cytochrome P450 1A2 = target: T1, Cytochrome P450 1A2 (Homo sapiens, UniProt P05177);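 also: PubChem cytochrome P450 panel assay, CYP1A2 panel member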
T1 sequence (P05177 whole entry): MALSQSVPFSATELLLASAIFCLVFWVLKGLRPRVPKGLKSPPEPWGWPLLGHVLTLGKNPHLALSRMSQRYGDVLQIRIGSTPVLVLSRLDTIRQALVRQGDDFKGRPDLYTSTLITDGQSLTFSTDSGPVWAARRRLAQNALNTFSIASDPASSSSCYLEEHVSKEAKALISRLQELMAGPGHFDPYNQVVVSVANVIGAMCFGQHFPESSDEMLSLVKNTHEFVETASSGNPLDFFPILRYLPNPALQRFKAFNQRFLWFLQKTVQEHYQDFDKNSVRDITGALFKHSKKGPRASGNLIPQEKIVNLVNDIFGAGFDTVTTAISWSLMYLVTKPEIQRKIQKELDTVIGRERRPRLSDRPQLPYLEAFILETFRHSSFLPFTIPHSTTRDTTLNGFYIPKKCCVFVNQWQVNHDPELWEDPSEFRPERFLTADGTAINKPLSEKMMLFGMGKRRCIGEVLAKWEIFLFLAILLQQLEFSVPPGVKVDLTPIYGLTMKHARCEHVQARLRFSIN

[2] = target: Melanin-concentrating hormone receptor 1 (Homo sapiens, UniProt Q99705); experiment: Late-stage fluorescence-based counterscreen for antagonists of the G-protein coupled receptor 7 (GPR7): cell-based dose response assay to identify antagonists of the melanin-concentrating hormone receptor 1 (MCHR1). [Related pubchem assays (depositor defined):AID1861, AID1880, AID1952, AID2148, AID2251, AID2257, AID485339]; format: functional;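 also: stimulated with 30 nM MCH peptide agonist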
[3] = Luminescence Cell-Based Dose Confirmation HTS to Identify Inhibitors of Platelet Dense Granule Release. [Related pubchem assays: 1663 (Primary HTS), 1678 (Summary of Project)]; format: functional
[4] = target: Luciferin 4-monooxygenase (Photinus pyralis, UniProt P08659); experiment: firefly luciferase enzyme inhibitors, dose response, biochemical, luminescence (AID 1891)
[5] = target: T2, Short transient receptor potential channel 4 (Mus musculus, UniProt Q9QUQ5); experiment: mouse TRPC4 channel inhibitors, dose response, cell-based, HEK293 TRPC4/mu-opioid, Fluo-4 calcium (AID 434942); format: functional;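 also: potency of inhibitors blocking the TRPC4 calcium response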
T2 sequence (Q9QUQ5 whole entry): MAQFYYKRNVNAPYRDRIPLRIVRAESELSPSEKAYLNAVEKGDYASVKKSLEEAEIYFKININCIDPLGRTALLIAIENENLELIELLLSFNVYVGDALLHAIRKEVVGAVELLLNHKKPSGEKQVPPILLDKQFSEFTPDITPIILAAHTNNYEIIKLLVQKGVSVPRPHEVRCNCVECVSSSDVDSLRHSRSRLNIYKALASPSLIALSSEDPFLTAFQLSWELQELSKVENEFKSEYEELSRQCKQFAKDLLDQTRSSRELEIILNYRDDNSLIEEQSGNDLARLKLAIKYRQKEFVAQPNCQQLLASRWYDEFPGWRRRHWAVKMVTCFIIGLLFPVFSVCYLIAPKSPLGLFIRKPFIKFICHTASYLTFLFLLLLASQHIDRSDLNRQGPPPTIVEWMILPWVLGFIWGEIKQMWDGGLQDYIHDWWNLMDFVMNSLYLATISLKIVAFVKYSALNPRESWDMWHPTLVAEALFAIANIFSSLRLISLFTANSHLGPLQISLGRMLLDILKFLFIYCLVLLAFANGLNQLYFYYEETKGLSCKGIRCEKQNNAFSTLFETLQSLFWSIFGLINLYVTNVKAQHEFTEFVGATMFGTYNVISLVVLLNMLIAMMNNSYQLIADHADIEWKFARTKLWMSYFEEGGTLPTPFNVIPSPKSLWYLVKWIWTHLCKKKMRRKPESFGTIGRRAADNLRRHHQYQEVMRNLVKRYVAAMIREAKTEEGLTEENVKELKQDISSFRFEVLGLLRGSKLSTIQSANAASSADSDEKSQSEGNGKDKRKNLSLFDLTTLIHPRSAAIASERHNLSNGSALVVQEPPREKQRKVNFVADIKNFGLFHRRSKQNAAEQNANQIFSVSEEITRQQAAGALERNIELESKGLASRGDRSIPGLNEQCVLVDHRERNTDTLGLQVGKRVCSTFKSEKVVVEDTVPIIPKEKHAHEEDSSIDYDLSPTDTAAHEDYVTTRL

[6] = A cytotoxicity screen of small molecule inhibitors of the PhoP region in Salmonella typhi identified in the primary screen. [Related pubchem assays: 1850, 1864, 1985 ]; format: functional
[7] = target: Nucleotide-binding oligomerization domain-containing protein 2 (Homo sapiens, UniProt Q9HC29); experiment: PubChem AID 2334; format: functional
[8] = target: T3, Nucleotide-binding oligomerization domain-containing protein 1 (Homo sapiens, UniProt Q9Y239); experiment: NOD1 signaling inhibitors, SAR follow-up, revised (AID 2333); format: functional
T3 sequence (Q9Y239 whole entry): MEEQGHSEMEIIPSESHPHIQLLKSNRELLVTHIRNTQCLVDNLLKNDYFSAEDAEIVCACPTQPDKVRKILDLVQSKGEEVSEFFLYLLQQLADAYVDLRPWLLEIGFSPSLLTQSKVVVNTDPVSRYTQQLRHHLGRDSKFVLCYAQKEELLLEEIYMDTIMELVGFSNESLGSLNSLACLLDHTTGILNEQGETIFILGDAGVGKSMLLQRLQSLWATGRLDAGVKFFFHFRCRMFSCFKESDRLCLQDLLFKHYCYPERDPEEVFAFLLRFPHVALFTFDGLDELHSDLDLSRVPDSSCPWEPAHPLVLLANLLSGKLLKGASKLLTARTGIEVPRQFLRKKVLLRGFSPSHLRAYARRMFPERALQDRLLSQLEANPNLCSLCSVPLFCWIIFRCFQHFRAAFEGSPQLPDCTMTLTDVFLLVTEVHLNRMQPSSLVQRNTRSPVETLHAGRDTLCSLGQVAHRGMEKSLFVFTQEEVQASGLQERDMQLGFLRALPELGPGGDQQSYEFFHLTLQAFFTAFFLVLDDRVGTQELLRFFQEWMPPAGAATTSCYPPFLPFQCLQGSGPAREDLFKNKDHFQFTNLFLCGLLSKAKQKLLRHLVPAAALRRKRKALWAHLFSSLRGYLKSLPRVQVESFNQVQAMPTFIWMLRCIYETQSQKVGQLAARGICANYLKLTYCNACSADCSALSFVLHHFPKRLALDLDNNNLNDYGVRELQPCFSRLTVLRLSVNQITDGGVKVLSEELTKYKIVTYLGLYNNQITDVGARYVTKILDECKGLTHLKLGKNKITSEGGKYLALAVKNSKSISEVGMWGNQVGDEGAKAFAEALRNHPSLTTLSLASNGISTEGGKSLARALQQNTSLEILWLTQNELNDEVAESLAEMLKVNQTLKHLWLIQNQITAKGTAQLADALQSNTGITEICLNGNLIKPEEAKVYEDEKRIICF

HEK293 = experiment: cells; conditions: Homo sapiens;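 also: cells exposed to compound for 14 hours overnight before viability readout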
Tumor necrosis factor = Tumor necrosis factor (Homo sapiens, UniProt P01375); experiment: TNFa-triggered NF-kB activation inhibitors, SAR follow-up, cell-based, revised (AID 2337); format: functional
Bcl-2-like protein 10 = target: T4, Bcl-2-like protein 10 (Homo sapiens, UniProt Q9HD36); experiment: displacers of TR3 peptide from Bcl-B, primary screen, selectivity assay for Bfl-1 inhibitor project, biochemical, fluorescence polarization, FITC-TR3 peptide (AID 748);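 also: fluorescence polarization from a fluorescein-labelled TR3 peptide binding purified Bcl-B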
T4 sequence (Q9HD36 whole entry): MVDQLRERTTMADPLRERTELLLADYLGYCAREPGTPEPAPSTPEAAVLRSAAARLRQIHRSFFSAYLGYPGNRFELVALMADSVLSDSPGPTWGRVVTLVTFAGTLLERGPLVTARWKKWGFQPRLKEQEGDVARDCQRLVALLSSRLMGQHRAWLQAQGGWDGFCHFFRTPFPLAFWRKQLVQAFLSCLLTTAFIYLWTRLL

[9] = target: DNA (cytosine-5)-methyltransferase 1 (Homo sapiens, UniProt P26358); experiment: DNMT1 methyltransferase inhibitors, confirmation, biochemical, fluorescent molecular beacon (AID 602386); format: functional
HeLa = experiment: HeLa cell cytotoxicity, dose response, cytotoxicity control, 24 h, cherry-picked samples (AID 504726); format: functional, cell-based; conditions: Homo sapiens;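 also: potency for cytotoxicity as loss of luminescence signal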
Cytochrome P450 3A4 = Cytochrome P450 3A4 (Homo sapiens, UniProt P08684); conditions: Potency;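 also: confirmatory qHTS run detecting inhibitors and substrates of CYP3A4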
Cytochrome P450 2C9 = Cytochrome P450 2C9 (Homo sapiens, UniProt P11712); conditions: Potency
[10] = target: Acyl-homoserine lactone acylase PvdQ (Pseudomonas aeruginosa (strain LESB58), UniProt Q9I194); experiment: P. aeruginosa PvdQ acylase inhibitors, dose response, biochemical, fluorescence, plate reader and imaging, cherry-picks (AID 493231)
[11] = target: Peroxisome proliferator-activated receptor gamma/Nuclear receptor coactivator 3 (Homo sapiens, UniProt P37231); format: functional;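 also: agonist potency for raising coactivator recruitment to the receptor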
[12] = target: Peroxisome proliferator-activated receptor gamma/Nuclear receptor coactivator 1 (Homo sapiens, UniProt P37231); format: functional;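 also: agonist potency as compounds enhance coactivator SRC-1 recruitment to PPARgamma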
Trypsin = Trypsin (Sus scrofa, UniProt P00761); experiment: porcine trypsin inhibitors, dose response, selectivity assay for Rce1 protease inhibitor project, biochemical, quenched peptide fluorescence, cherry-pick (AID 488789)
[13] = target: Peroxisome proliferator-activated receptor gamma/Nuclear receptor coactivator 2 (Homo sapiens, UniProt P37231); format: functional;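 also: agonist potency for raising coactivator recruitment to the receptor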
Sequence of Peroxisome proliferator-activated receptor gamma/Nuclear receptor coactivator 2 (P37231 whole entry): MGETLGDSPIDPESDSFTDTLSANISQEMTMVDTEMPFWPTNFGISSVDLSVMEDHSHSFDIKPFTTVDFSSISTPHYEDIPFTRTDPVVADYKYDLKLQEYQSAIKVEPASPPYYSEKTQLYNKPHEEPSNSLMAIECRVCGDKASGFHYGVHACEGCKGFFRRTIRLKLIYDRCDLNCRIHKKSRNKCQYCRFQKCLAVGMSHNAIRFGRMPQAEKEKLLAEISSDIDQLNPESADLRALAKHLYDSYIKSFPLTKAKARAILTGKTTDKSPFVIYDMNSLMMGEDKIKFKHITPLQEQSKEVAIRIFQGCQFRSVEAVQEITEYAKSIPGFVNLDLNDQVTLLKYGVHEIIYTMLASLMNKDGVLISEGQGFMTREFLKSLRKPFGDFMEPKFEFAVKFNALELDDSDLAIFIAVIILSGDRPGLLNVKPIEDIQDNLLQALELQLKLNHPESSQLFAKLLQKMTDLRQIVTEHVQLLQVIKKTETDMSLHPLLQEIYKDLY
Sequence of Peroxisome proliferator-activated receptor gamma/Nuclear receptor coactivator 2 (Q15596 whole entry, further chain): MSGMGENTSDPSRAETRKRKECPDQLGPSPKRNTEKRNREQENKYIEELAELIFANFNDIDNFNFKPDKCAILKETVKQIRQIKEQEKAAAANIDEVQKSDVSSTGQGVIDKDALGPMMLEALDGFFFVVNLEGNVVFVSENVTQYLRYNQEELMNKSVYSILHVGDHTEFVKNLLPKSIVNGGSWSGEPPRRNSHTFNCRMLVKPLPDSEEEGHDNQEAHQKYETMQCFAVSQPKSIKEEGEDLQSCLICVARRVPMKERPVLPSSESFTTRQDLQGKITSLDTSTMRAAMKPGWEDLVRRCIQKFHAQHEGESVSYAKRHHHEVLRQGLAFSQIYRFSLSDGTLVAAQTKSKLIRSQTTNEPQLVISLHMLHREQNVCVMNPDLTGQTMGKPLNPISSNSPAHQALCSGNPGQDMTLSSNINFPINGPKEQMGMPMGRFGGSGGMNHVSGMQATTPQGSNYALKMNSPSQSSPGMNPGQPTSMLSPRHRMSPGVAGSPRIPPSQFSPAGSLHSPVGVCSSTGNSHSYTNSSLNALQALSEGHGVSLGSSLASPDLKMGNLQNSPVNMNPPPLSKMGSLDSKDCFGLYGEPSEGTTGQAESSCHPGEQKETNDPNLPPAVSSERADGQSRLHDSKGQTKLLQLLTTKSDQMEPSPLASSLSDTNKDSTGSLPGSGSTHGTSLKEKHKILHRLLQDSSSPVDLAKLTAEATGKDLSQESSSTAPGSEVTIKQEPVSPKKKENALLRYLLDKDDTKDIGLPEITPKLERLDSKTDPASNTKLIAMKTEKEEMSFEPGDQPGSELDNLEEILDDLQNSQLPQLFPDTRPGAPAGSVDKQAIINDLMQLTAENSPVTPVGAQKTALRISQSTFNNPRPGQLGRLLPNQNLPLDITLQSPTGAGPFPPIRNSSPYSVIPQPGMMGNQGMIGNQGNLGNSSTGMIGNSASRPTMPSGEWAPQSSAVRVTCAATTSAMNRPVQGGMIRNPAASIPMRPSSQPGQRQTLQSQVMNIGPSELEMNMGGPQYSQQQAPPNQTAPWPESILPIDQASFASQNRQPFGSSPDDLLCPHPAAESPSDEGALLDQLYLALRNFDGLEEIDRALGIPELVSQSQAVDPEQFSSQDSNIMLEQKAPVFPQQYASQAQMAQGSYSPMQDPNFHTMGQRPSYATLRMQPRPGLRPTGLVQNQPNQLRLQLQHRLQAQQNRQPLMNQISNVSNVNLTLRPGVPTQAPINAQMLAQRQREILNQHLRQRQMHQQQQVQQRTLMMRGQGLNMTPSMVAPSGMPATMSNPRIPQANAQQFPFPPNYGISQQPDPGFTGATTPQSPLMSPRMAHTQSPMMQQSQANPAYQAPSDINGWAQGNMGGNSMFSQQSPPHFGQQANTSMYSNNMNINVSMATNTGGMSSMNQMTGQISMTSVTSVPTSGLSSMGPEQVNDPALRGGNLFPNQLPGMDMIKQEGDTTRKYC

Sequence of Eukaryotic translation initiation factor 4E (P63073 whole entry): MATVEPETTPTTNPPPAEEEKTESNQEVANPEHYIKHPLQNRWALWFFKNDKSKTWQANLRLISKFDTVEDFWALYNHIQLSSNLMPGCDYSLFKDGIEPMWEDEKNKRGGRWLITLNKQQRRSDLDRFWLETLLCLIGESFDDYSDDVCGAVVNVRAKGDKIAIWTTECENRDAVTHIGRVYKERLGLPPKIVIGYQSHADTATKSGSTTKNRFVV
Sequence of Acyl-homoserine lactone acylase PvdQ (Q9I194 24-193 limits assumed): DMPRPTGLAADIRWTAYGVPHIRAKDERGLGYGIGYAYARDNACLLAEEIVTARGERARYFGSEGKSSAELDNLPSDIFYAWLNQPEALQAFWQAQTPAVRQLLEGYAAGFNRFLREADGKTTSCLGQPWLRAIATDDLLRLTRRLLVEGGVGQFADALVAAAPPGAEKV
Sequence of Acyl-homoserine lactone acylase PvdQ (Q9I194 217-762 limits assumed): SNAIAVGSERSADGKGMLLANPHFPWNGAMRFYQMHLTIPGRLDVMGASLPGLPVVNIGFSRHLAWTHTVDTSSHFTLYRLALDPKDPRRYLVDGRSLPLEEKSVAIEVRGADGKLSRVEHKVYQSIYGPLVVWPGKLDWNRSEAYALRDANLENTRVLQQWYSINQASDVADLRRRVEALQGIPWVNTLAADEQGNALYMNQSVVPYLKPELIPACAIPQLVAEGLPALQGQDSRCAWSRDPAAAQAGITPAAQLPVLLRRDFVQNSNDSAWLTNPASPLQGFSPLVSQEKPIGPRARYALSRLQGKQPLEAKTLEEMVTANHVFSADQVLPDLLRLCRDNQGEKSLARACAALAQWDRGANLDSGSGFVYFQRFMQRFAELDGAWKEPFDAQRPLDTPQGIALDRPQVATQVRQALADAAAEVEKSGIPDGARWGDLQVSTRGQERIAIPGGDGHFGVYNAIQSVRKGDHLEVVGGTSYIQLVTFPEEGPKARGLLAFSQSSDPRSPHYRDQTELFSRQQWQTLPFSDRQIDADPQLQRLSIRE
Sequence of Melanin-concentrating hormone receptor 1 (Q99705 whole entry): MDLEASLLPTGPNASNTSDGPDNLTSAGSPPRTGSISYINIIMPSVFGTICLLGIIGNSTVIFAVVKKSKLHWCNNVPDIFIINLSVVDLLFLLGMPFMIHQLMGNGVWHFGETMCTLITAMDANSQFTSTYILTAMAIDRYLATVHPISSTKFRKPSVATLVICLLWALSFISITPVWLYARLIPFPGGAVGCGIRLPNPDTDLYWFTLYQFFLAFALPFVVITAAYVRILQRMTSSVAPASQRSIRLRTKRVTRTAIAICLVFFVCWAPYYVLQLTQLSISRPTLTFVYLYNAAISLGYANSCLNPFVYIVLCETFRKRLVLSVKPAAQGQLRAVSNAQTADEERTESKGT
Sequence of Cytochrome P450 3A4 (P08684 whole entry): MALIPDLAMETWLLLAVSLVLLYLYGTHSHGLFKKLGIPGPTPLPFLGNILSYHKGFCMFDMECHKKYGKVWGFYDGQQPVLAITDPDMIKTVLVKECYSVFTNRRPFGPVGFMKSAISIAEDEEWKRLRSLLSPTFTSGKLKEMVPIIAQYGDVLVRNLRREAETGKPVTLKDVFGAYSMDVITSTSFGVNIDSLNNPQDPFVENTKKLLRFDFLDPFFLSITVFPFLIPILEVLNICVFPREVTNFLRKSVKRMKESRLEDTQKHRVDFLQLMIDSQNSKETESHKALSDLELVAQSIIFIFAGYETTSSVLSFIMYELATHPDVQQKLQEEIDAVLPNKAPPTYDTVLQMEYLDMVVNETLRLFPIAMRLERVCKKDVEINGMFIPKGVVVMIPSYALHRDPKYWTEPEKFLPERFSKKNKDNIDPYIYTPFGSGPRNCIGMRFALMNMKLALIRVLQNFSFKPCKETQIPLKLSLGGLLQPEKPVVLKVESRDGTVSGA
Sequence of Tumor necrosis factor (P01375 whole entry): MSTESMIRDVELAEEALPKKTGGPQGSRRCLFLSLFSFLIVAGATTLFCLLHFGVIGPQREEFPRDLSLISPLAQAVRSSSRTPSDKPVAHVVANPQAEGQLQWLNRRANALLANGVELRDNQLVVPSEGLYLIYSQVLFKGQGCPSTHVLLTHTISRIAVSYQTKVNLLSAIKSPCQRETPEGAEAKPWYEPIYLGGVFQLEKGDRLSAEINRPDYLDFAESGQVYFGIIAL
Sequence of Trypsin (P00761 whole entry): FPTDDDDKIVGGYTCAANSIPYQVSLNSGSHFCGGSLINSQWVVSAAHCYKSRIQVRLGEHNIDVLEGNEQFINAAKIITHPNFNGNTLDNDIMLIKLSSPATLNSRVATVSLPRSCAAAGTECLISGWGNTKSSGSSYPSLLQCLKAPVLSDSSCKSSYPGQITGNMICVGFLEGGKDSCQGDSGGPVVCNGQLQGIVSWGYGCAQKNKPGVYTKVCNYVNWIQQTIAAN
Sequence of Luciferin 4-monooxygenase (P08659 whole entry): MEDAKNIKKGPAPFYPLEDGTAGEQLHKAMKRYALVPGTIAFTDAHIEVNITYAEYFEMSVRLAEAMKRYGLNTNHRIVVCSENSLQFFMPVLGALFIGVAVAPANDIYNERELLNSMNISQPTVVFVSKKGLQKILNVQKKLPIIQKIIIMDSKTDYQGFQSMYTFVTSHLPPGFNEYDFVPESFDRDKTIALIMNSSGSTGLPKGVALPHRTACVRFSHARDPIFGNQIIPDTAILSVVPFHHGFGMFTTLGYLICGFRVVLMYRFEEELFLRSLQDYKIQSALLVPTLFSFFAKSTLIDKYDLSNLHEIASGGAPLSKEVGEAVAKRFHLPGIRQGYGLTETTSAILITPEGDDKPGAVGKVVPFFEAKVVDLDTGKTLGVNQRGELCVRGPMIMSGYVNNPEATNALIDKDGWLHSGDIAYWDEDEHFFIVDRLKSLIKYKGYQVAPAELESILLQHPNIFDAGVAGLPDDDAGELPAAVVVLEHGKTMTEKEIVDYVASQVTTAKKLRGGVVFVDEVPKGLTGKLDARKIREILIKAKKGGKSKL

With O=C(Oc1c(Br)cc(C(=S)N2CCOCC2)cc1Br)c1ccc(Cl)cc1 the IC50 [1] was > 64 µM (inactive) and the AC50 (Cytochrome P450 1A2) was 17.8 µM (inconclusive).
For CC(C)c1ccc(-n2ncc(Cl)c(NCc3ccccc3)c2=O)cc1, the IC50 [2] was 6.9 µM (active).
In the case of COc1ccc(-c2nc(-c3ccc(Br)cc3)no2)c(OC)c1, the EC50 [3] is reported as > 112 µM (not active), the EC50 [4] is reported as > 112 µM (not active) and the IC50 [1] is reported as > 64 µM (inactive).
With Clc1ccc(CN2C3=NCCN3c3ccccc32)cc1 the EC50 [5] was 1.5 µM (active) and the EC50 [6] was > 50 µM (active).
With CCOC(=O)c1c(NC(=O)c2cccs2)sc2c1CC(C)(C)OC2 the IC50 [7] was > 20 µM (inactive), the IC50 [8] was > 20 µM (inactive) and the IC50 (HEK293) was > 20 µM (inactive). For the same compound, the IC50 (Tumor necrosis factor) was > 20 µM (inactive).
For COc1ccccc1Nc1cc(C(=O)NCc2cccnc2)c2ccccc2n1, the EC50 [6] was > 50 µM (active).
In the case of COc1ccc(Oc2c(Cl)cnn(-c3ccc4c(c3)CCCC4)c2=O)cc1, the IC50 [2] is reported as 2.1 µM (active).
In the case of COCCn1c(SCC(=O)Nc2ncc(Cl)c(C)c2Cl)nc2ccccc21, the IC50 (Bcl-2-like protein 10) is reported as 90.6 µM (inactive).
In the case of Cc1cccc(OCC(=O)Nc2ccc(N3CCCC3)cc2)c1C, the IC50 [9] is reported as > 99 µM (inactive) and the IC50 (Bcl-2-like protein 10) is reported as 96.2 µM (inactive).
With NC(=S)N/N=C/c1ccc(-c2ccc([N+](=O)[O-])cc2)o1 the AC50 (HeLa) was 84.6 µM (active).
For CCCCCC(=O)c1cc(CC(C(=O)OC)C(=O)OC)cc2cc(OC)c(OC)cc12, the AC50 (Cytochrome P450 3A4) was 3.98 µM (inconclusive) and the AC50 (Cytochrome P450 2C9) was 3.16 µM (inconclusive).
With N#Cc1cn(Cc2ccccc2)c2ccccc12 the AC50 [10] was 45 µM (active).
With CCC(C)(C)NC(=O)c1cc([N+](=O)[O-])ccc1N1CCCCC1 the AC50 [10] was 13.7 µM (active).
In the case of Cc1ccc(-c2cc(-c3ccccc3)c(C#N)c(Br)n2)cc1, the EC50 [11] is reported as 58.2 µM (not active), the EC50 [12] is reported as 58.7 µM (not active) and the AC50 (Trypsin) is reported as 11.9 µM (active). For the same compound, the EC50 [13] was 34.1 µM (not active).
With Cc1cccc(N(Cc2ccccc2)C(=O)C2CCN(C(=O)c3ccccc3C)CC2)c1 the AC50 (HeLa) was 135 µM (active).
